Data reported in patent US10717716B2, “1,3,4-oxadiazole derivative compounds as histone deacetylase 6 inhibitor, and the pharmaceutical composition comprising the same” (Chong Kun Dang Pharmaceutical Corp., priority 2015, dated 2020).

Target: T1, human recombinant HDAC6 (Homo sapiens, UniProt Q9UBN7)
T1 construct: purchased Calbiochem 382180
T1 sequence (Q9UBN7 1-1215): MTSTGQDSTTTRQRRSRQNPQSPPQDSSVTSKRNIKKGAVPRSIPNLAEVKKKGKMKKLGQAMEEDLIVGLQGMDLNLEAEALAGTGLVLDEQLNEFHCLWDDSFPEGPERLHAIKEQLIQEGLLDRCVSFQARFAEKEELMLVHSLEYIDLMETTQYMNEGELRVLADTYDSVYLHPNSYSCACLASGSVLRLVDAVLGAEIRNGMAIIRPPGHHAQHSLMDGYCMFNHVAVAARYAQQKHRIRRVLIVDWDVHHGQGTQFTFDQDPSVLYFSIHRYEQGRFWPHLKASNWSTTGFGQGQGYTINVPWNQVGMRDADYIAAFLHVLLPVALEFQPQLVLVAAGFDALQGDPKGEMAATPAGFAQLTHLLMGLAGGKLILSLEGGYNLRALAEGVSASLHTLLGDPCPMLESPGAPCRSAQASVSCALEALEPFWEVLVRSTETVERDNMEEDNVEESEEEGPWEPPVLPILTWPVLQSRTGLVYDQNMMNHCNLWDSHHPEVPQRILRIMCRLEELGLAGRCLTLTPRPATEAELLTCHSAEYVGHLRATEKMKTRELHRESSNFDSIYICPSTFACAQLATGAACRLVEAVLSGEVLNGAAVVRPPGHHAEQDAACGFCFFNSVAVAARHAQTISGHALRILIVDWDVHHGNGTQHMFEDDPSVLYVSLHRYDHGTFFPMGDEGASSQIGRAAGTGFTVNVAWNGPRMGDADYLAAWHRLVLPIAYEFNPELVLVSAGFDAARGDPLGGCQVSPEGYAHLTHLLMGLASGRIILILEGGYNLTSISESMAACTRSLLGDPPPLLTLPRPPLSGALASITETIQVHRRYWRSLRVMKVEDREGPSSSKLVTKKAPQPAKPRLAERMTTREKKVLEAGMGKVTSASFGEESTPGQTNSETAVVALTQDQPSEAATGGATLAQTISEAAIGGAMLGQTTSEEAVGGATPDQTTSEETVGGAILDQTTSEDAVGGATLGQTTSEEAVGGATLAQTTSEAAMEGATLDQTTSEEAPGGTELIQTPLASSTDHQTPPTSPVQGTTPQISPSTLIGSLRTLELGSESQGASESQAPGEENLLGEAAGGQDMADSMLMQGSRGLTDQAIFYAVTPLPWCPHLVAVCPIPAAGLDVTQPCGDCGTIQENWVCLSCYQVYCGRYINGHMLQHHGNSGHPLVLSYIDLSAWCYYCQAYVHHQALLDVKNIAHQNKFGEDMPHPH
Experiment: HDAC6 enzyme activity inhibition assay (HDAC Fluorimetric Drug Discovery Kit)
Format: biochemical
Conditions: for HDAC6 selectivity (fold): HDAC6 over HDAC1; for IC50: human recombinant HDAC6, same protocol as HDAC1, read-out: HDAC6
How it was run: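 Fluorimetric deacetylase assay: 5-fold serial compound dilutions, 0.3 μg recombinant human enzyme (HDAC1 or HDAC6, same protocol), 10 μM Fluor de Lys-SIRT1 substrate, 60 min at 30 °C. Signal developed 30 min, measured at 360/460 nm; IC50 values derived.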

SMILES | HDAC6 selectivity (fold) | IC50
O=C(N1CCOCC1)N(Cc1ccc(-c2nnc(C(F)F)o2)cn1)c1ccccc1 [Compound 21630, N-((5-(5-(difluoromethyl)-1,3,4-oxadiazol-2-yl)pyridin-2-yl)methyl)-N-phenylmorpholine-4-carboxamide] | 549 fold | 18 nM
O=C(N1CCS(=O)(=O)CC1)N(Cc1ccc(-c2nnc(C(F)F)o2)cn1)c1ccc(Oc2ccccc2)cc1 [Compound 21631, N-((5-(5-(difluoromethyl)-1,3,4-oxadiazol-2-yl)pyridin-2-yl)methyl)-N-(4-phenoxyphenyl)thiomorpholine-4-carboxamide 1,1-dioxide] | 138 fold | 72 nM
Cc1ccccc1N(Cc1ccc(-c2nnc(C(F)F)o2)cn1)C(=O)N1CCN(C)CC1 [Compound 21632, N-((5-(5-(difluoromethyl)-1,3,4-oxadiazol-2-yl)pyridin-2-yl)methyl)-4-methyl-N-(o-tolyl)piperazine-1-carboxamide] | 245 fold | 41 nM
Cc1ccccc1N(Cc1ccc(-c2nnc(C(F)(F)F)o2)cn1)C(=O)N1CCN(C)CC1 [Compound 21633, 4-Methyl-N-(o-tolyl)-N-((5-(5-(trifluoromethyl)-1,3,4-oxadiazol-2-yl)pyridin-2-yl)methyl)piperazine-1-carboxamide] | 58 fold | 173 nM
CN1CCN(C(=O)N(Cc2ccc(-c3nnc(C(F)(F)F)o3)cn2)c2ccccc2F)CC1 [Compound 21634, N-(2-fluorophenyl)-4-methyl-N-((5-(5-(trifluoromethyl)-1,3,4-oxadiazol-2-yl)pyridin-2-yl)methyl)piperazine-1-carboxamide] | 83 fold | 120 nM
CN(C)[C@H]1CCN(C(=O)N(Cc2ccc(-c3nnc(C(F)F)o3)cc2F)c2cccc(Cl)c2F)C1 [Compound 21643, (S)—N-(3-chloro-2-fluorophenyl)-N-(4-(5-(difluoromethyl)-1,3,4-oxadiazol-2-yl)-2-fluorobenzyl)-3-(dimethylamino)pyrrolidine-1-carboxamide] | 352 fold | 28 nM
CN(C)[C@H]1CCN(C(=O)N(Cc2ccc(-c3nnc(C(F)(F)F)o3)cc2F)c2cccc(Cl)c2F)C1 [Compound 21644, (S)—N-(3-chloro-2-fluorophenyl)-3-(dimethylamino)-N-(2-fluoro-4-(5-(trifluoromethyl)-1,3,4-oxadiazol-2-yl)benzyl)pyrrolidine-1-carboxamide] | 74 fold | 135 nM
CN(C)[C@@H]1CCN(C(=O)N(Cc2ccc(-c3nnc(C(F)(F)F)o3)cc2F)c2cccc(Cl)c2F)C1 [Compound 21645, (R)—N-(3-chloro-2-fluorophenyl)-3-(dimethylamino)-N-(2-fluoro-4-(5-(trifluoromethyl)-1,3,4-oxadiazol-2-yl)benzyl)pyrrolidine-1-carboxamide] | 46 fold | 216 nM
CCN1CCN(C(=O)N(Cc2ccc(-c3nnc(C(F)F)o3)cc2F)c2cccc(Cl)c2F)CC1 [Compound 21646, N-(3-chloro-2-fluorophenyl)-N-(4-(5-(difluoromethyl)-1,3,4-oxadiazol-2-yl)-2-fluorobenzyl)-4-ethylpiperazine-1-carboxamide] | 317 fold | 32 nM
O=C(N1CCS(=O)(=O)CC1)N(Cc1ccc(-c2nnc(C(F)F)o2)cc1F)c1ccc(F)cn1 [Compound 21653, N-(4-(5-(difluoromethyl)-1,3,4-oxadiazol-2-yl)-2-fluorobenzyl)-N-(5-fluoropyridin-2-yl)thiomorpholine-4-carboxamide 1,1-dioxide] | 246 fold | 41 nM
O=C(N1CCOCC1)N(Cc1ccc(-c2nnc(C(F)F)o2)nc1)c1ccc(F)c(Cl)c1 [Compound 21766, N-(3-Chloro-4-fluorophenyl)-N-((6-(5-(difluoromethyl)-1,3,4-oxadiazol-2-yl)pyridin-3-yl)methyl)morpholine-4-carboxamide] | 88 fold | 114 nM
O=C(N1CCS(=O)(=O)CC1)N(Cc1ccc(-c2nnc(C(F)F)o2)nc1)c1ccc(F)c(Cl)c1 [Compound 21767, N-(3-Chloro-4-fluorophenyl)-N-((6-(5-(difluoromethyl)-1,3,4-oxadiazol-2-yl)pyridin-3-yl)methyl)thiomorpholine-4-carboxamide 1,1-dioxide] | 9 fold | 1140 nM
O=C(N1CCS(=O)(=O)CC1)N(Cc1ccc(-c2nnc(C(F)F)o2)cc1F)c1ccc2c(c1)CCC2 [Compound 21797, N-(4-(5-(Difluoromethyl)-1,3,4-oxadiazol-2-yl)-2-fluorobenzyl)-N-(2,3-dihydro-1H-inden-5-yl)thiomorpholine-4-carboxamide 1,1-dioxide] | 37 fold | 268 nM
CC1(C)Cc2cccc(N(Cc3ccc(-c4nnc(C(F)F)o4)cc3F)C(=O)N3CCS(=O)(=O)CC3)c2O1 [Compound 21798, N-(4-(5-(Difluoromethyl)-1,3,4-oxadiazol-2-yl)-2-fluorobenzyl)-N-(2,2-dimethyl-2,3-dihydrobenzofuran-7-yl)thiomorpholine-4-carboxamide 1,1-dioxide] | 8 fold | 1320 nM

The remaining lines, values ahead:

HDAC6 selectivity (fold) | IC50 | SMILES
690 fold | 15 nM | CCN1CCN(C(=O)N(Cc2ccc(-c3nnc(C(F)F)o3)cc2F)c2cccc(F)c2F)CC1 [Compound 21655, N-(4-(5-(difluoromethyl)-1,3,4-oxadiazol-2-yl)-2-fluorobenzyl)-N-(2,3-difluorophenyl)-4-ethylpiperazine-1-carboxamide]
226 fold | 44 nM | CCN1CCN(C(=O)N(Cc2ccc(-c3nnc(C(F)F)o3)cc2F)c2ccc(C)c(Cl)c2)CC1 [Compound 21657, N-(3-chloro-4-methylphenyl)-N-(4-(5-(difluoromethyl)-1,3,4-oxadiazol-2-yl)-2-fluorobenzyl)-4-ethylpiperazine-1-carboxamide]
199 fold | 50 nM | CN1CCN(C(=O)N(Cc2ccc(-c3nnc(C(F)F)o3)cc2F)c2cccc3cnn(C)c23)CC1 [Compound 21707, N-(4-(5-(Difluoromethyl)-1,3,4-oxadiazol-2-yl)-2-fluorobenzyl)-4-methyl-N-(1-methyl-1H-indazol-7-yl)piperazine-1-carboxamide]
167 fold | 60 nM | Cn1ncc2cccc(N(Cc3ccc(-c4nnc(C(F)F)o4)cc3F)C(=O)N3CCS(=O)(=O)CC3)c21 [Compound 21708, N-(4-(5-(Difluoromethyl)-1,3,4-oxadiazol-2-yl)-2-fluorobenzyl)-N-(1-methyl-1H-indazol-7-yl)thiomorpholine-4-carboxamide 1,1-dioxide]
405 fold | 25 nM | O=C(N1CC2(COC2)C1)N(Cc1ccc(-c2nnc(C(F)F)o2)cc1F)c1cccc(F)c1 [Compound 21759, N-(4-(5-(difluoromethyl)-1,3,4-oxadiazol-2-yl)-2-fluorobenzyl)-N-(3-fluorophenyl)-2-oxa-6-azaspiro[3.3]heptane-6-carboxamide]
215 fold | 46 nM | Cc1cccc(N(Cc2ccc(-c3nnc(C(F)F)o3)cc2F)C(=O)N2CC3(COC3)C2)c1 [Compound 21760, N-(4-(5-(difluoromethyl)-1,3,4-oxadiazol-2-yl)-2-fluorobenzyl)-N-(m-tolyl)-2-oxa-6-azaspiro[3.3]heptane-6-carboxamide]
88 fold | 114 nM | CCN1CC2(CCN(C(=O)N(Cc3ccc(-c4nnc(C(F)F)o4)cc3F)c3ccc4cnn(C)c4c3)CC2)C1 [Compound 21765, N-(4-(5-(Difluoromethyl)-1,3,4-oxadiazol-2-yl)-2-fluorobenzyl)-2-ethyl-N-(1-methyl-1H-indazol-6-yl)-2,7-diazaspiro[3.5]nonane-7-carboxamide]
